Measured values: patent US5292737A, “N,N'-bis(sulfonamido)-2-amino-4-iminonaphthalen-1-ones and N,N'-bis(amido)-2-amino-4-iminonaphthalen-1-ones” (Sphinx Pharmaceuticals Corporation, priority 1992, dated 1994)
Where two headings read alike, the source gives them in different places.

What was measured:
[1] = target: T1, PKC isoenzyme γ (Homo sapiens, UniProt P05129); assay: Protein kinase C inhibition assay, PKC isoenzyme γ; assay type: biochemical
T1 construct: made in house; host or cells: baculovirus-insect cell expression system
Protocol: A protein kinase C (PKC) assay is designed to duplicate the in vivo conditions required for protein kinase C function. Therefore, pH, salt and cofactor concentrations are similar to physiologic levels. Either lysine rich histone H1 (H1) or Myelin basic protein (Mbp) are used in the assay as the phosphorylation acceptor-protein because they are readily available and serve as good substrates for protein kinase C. Enzyme was prepared from baculovirus-insect cell expression systems.
In the screening assay, phosphatidylserine (PS) and DAG were co-sonicated to form unilamellar and multilamellar vesicles. The concentration of lipids in the assay were suboptimal to maximize the detection potential of the assay for inhibitors or activators. Potential effector compounds were added to the assay in dimethylsulfoxide at four concentrations to give final inhibitor concentrations of 1, 10, 50, and 150 μM, respectively.
The assay was started with the addition of enzyme and stopped after 10 min by the addition of 25% trichloroacetic acid (TCA) and 1.0 mg/ml bovine serum albumin (BSA). The radioactive histone product was retained and washed on glass fiber filters that allow the unreacted P-ATP to pass through. The amount of phosphorylation was determined by measuring radioactivity with a scintillation counter. Controls were included in every assay to measure background activity in the absence of enzyme, activity in the absence of lipids, and the maximum enzyme activity with saturating levels of the activator lipids.
Results of the protein kinase C assay are shown in Table 4 in columns labeled α, βII, γ, δ, ε, and .zeta. which represent various PKC isoenzymes. Results are show as IC50, which is the concentration of test compound needed to inhibit 50% of the protein kinase C activity in controls.

[2] = tested on: human neutrophils; assay: Neutrophil Superoxide Anion (O2) Release Assay, PMA-stimulated; assay type: cell-based; details: PMA-stimulated human neutrophils, read-out: Neutrophil Superoxide Release IC50
Excerpt: Phorbol-12,13-myristate acetate (PMA) stimulates O2 production in human neutrophils which in turn reduces cytochrome C. Reducing cytochrome C increases absorbance and the change in optical density (OD) is proportional to the amount of O2 produced by PMA stimulation. Inhibition is expressed as an IC50 value and is the amount of test compound that will inhibit fifty percent of the PMA-stimulated respiratory outburst, i.e. O2^31 production (Lherer et al. (1981) J. Clinical lnvest. 68:1314; Roberts et al. (1982) J. Immunological Methods 49:193).
Human donor blood in 0.38% Sodium Citrate was centrifuged for 10 minutes at 160 ×g at room temperature. Platelet-rich plasma was removed leaving the buffy coat and the red cell-enriched fraction. Saline with 0.38% Sodium Citrate was added to this fraction up to the original blood volume. The enriched blood sample was diluted 1:1 (v:v) with 3% dextran T500 (Pharmacia) in normal saline and placed in a 60 cc syringe, inverted over a beaker and allowed to settle 30 minutes at room temperature.
Leukocyte-enriched plasma was removed from the syringe, placed into 50 ml polypropylene conical centrifuge tubes and underlaid with 15-20 ml Lymphocyte Separation Medium (LSM Organon Technica). The tubes were centrifuged for 40 minutes at 500×g at room temperature. The plasma, buffy coat and LSM were aspirated off the pellets which contained red blood cells and neutrophils.
The pellets were vortexed and 10 ml ice-cold 0.2% NaCl was added to lyse the red blood cells while vortexing again for 10 seconds. Ice-cold 1.6% NaCl was added while vortexing for 10 seconds. The cells were combined from multiple tubes, centrifuged 10 min at 400×g at 4° C. This red cell lysis was repeated and the resulting neutrophil pellet was washed once in Reaction HBSS (GIBCO, HBSS with Ca^++ and Mg^++,.238% HEPES, 0.1% dextrose, 0.1% RIA grade bovine serum albumin, PH 7.2). The cells were resuspended in 1/5 the original blood volume with Reaction HBSS, counted and adjusted to 4.0×10^6 cells/ml at 4° C.
Duplicate samples of neutrophils were tested in 12×75 mm polypropylene tubes containing 0.25 ml of the neutrophil suspension. Cytochrome C mix (0.25 ml, 6.0 mg/ml cytochrome C type IV (Sigma) plus 1200 U/ml bovine liver catalase (Sigma) in Reaction HBSS described above) was added. PMA was added at 2×the final concentration in 0.5 ml of Reaction HBSS. PMA final test concentration were 0.0, 0.3, 9.0, 27.0, and 81.0 ng/ml. The tubes were vortexed and incubated for 10 minutes at 37° C. with shaking. After chilling for 5 minutes at 4° C. and centrifuging for 10 minutes at 4° C., 550×g, 0.5 ml of supernatant was removed from each tube. Normal saline (0.5 ml) was added to each 0.5 ml sample of supernatant and the absorbance of each sample was read at 550 nm on a spectrophotometer (Shimadzu). The PMA concentration which gives nearly maximal stimulation of superoxide release was determined.
The test samples of neutrophils were prepared as in the PMA dose response through addition of cytochrome C mix. Then 0.4 ml of Reaction HBSS as a control or test agent at 2.5×final test concentration was added and the tubes were vortexed and incubated for 30 minutes at 37° C. with shaking. PMA (0.1 ml) was added at a 10× concentration of the final concentration determined above. The samples were incubated for 10 minutes at 37° C. with shaking, chilled for 5 minutes at 4° C., and then centrifuged for 5 minutes at 550×g at 4° C. The supernatant (0.5 ml) was diluted with 0.5 ml normal saline as above and the absorbance was then determined at 550 nm. The percent change was calculated as follows: [formula] D-sphingosine (Sigma) used as reference standard.
Human neutrophils were first isolated according to Lherer et al. ((1981) J. Clinical Invest. 68:1314) and then tested for stimulation of superoxide anion release with phorbol--12,13-myristate acetate (PMA) in a dose-dependent manner. […]

| SMILES | IC50 ([1]; read-out: IC50 PKC γ) [µM] | IC50 [2] [µM] | IC50 ([2]; Homo sapiens, Neutrophil) [µM] | IC50 ([1]; IC50 PKC γ) [µM] |
| --- | --- | --- | --- | --- |
| COc1cnc(NS(=O)(=O)c2ccc(N=C3C=C(Nc4ccc(S(=O)(=O)Nc5ncc(OC)cn5)cc4)C(=O)c4ccccc43)cc2)nc1 [Compound 6h] | 41 | 2.4 | – | – |
| Cc1cc(C)nc(NS(=O)(=O)c2cc(N=C3C=C(Nc4ccc(C)c(S(=O)(=O)Nc5cc(C)cc(C)n5)c4)C(=O)c4ccccc43)ccc2C)c1 [Compound 3ag] | 20 | – | 0.04 | – |
| Cc1nnc(NS(=O)(=O)c2ccc(N=C3C=C(Nc4ccc(S(=O)(=O)Nc5nnc(C)s5)cc4)C(=O)c4ccccc43)cc2)s1 [Compound 6e] | 12 | 4.78 | – | – |
| Cc1nnc(NS(=O)(=O)c2ccc(N=C3C=C(Nc4ccc(S(=O)(=O)Nc5nnc(C)s5)cc4)C(=O)c4ccccc43)cc2)s1 [Compound 3e] | 22 | – | 8.38 | – |
| O=C1C(Nc2ccc(S(=O)(=O)Nc3ccc(Cl)nn3)cc2)=CC(=Nc2ccc(S(=O)(=O)Nc3ccc(Cl)nn3)cc2)c2ccccc21 [Compound 6l] | 9 | 5.23 | – | – |
| O=C1C(Nc2ccc(S(=O)(=O)Nc3ccccn3)cc2)=CC(=Nc2ccc(S(=O)(=O)Nc3ccccn3)cc2)c2ccccc21 [Compound 3i] | 15 | – | 0.1 | – |
| COc1cc(NS(=O)(=O)c2ccc(N=C3C=C(Nc4ccc(S(=O)(=O)Nc5cc(OC)nc(OC)n5)cc4)C(=O)c4ccccc43)cc2)nc(OC)n1 [Compound 3g] | 14 | 2.75 | – | – |
| Cc1cc(NS(=O)(=O)c2ccc(N=C3C=C(Nc4ccc(S(=O)(=O)Nc5cc(C)nc(C)n5)cc4)C(=O)c4ccccc43)cc2)nc(C)n1 [Compound 3d] | 36 | – | 5.85 | – |
| COc1cnc(NS(=O)(=O)c2ccc(N=C3C=C(Nc4ccc(S(=O)(=O)Nc5ncc(OC)cn5)cc4)C(=O)c4ccccc43)cc2)nc1 [Compound 3h] | 55 | 8.7 | – | – |
| O=C1C(Nc2ccc(S(=O)(=O)NCCNc3ccc([N+](=O)[O-])cn3)cc2)=CC(=Nc2ccc(S(=O)(=O)NCCNc3ccc([N+](=O)[O-])cn3)cc2)c2ccccc21 [Compound 3ac] | – | – | 0.05 | 22 |
| O=C1C(Nc2ccc(S(=O)(=O)Nc3ccc(Cl)nn3)cc2)=CC(=Nc2ccc(S(=O)(=O)Nc3ccc(Cl)nn3)cc2)c2ccccc21 [Compound 3l] | 7 | 0.9 | – | – |
| COc1cc(NS(=O)(=O)c2ccc(N=C3C=C(Nc4ccc(S(=O)(=O)Nc5cc(OC)nc(OC)n5)cc4)C(=O)c4ccccc43)cc2)nc(OC)n1 [Compound 6g] | 20 | 1.34 | – | – |
| COc1ccc(NS(=O)(=O)c2ccc(N=C3C=C(Nc4ccc(S(=O)(=O)Nc5ccc(OC)nn5)cc4)C(=O)c4ccccc43)cc2)nn1 [Compound 3j] | 15 | – | 1.74 | – |
| Cc1cc(NS(=O)(=O)c2ccc(N=C3C=C(Nc4ccc(S(=O)(=O)Nc5cc(C)nc(C)n5)cc4)C(=O)c4ccccc43)cc2)nc(C)n1 [Compound 6d] | 24 | 6.47 | – | – |
| O=C1C(Nc2ccc(S(=O)(=O)NCc3ccccn3)cc2)=CC(=Nc2ccc(S(=O)(=O)NCc3ccccn3)cc2)c2ccccc21 [Compound 3n] | 24 | 0.22 | – | – |
| O=C1C(Nc2ccc(S(=O)(=O)Nc3ccccn3)cc2)=CC(=Nc2ccc(S(=O)(=O)Nc3ccccn3)cc2)c2ccccc21 [Compound 6i] | 10 | 0.11 | – | – |

| SMILES | IC50 ([1]; read-out: IC50 PKC γ) [µM] | IC50 [2] [µM] | IC50 ([2]; Homo sapiens, Neutrophil) [µM] | IC50 ([1]; IC50 PKC γ) [µM] |
| --- | --- | --- | --- | --- |
| O=C1C(Nc2ccc(S(=O)(=O)NCc3ccccn3)cc2)=CC(=Nc2ccc(S(=O)(=O)NCc3ccccn3)cc2)c2ccccc21 [Compound 6n] | 44 | 0.1 | – | – |
| Cc1noc(NS(=O)(=O)c2ccc(N=C3C=C(Nc4ccc(S(=O)(=O)Nc5onc(C)c5C)cc4)C(=O)c4ccccc43)cc2)c1C [Compound 3b] | 25 | – | 7.6 | – |
| Cc1cc(C)nc(NC(=O)c2ccc(N=C3C=C(Nc4ccc(C(=O)Nc5nc(C)cc(C)n5)cc4)C(=O)c4ccccc43)cc2)n1 [Compound 3ai] | 9 | – | 4.02 | – |
| COc1cc(NS(=O)(=O)c2ccc(N=C3C=C(Nc4ccc(S(=O)(=O)Nc5cc(OC)cc(OC)c5)cc4)C(=O)c4ccccc43)cc2)cc(OC)c1 [Compound 6af] | 60 | 0.07 | – | – |
| COc1cc(NS(=O)(=O)c2ccc(N=C3C=C(Nc4ccc(S(=O)(=O)Nc5cc(OC)cc(OC)c5)cc4)C(=O)c4ccccc43)cc2)cc(OC)c1 [Compound 3af] | 40 | – | 0.06 | – |
| O=C1C(Nc2ccc(S(=O)(=O)Nc3cnc4ccccc4n3)cc2)=CC(=Nc2ccc(S(=O)(=O)Nc3cnc4ccccc4n3)cc2)c2ccccc21 [Compound 6m] | 10 | 1.39 | – | – |
| Cc1ccnc(NS(=O)(=O)c2ccc(N=C3C=C(Nc4ccc(S(=O)(=O)Nc5nccc(C)n5)cc4)C(=O)c4ccccc43)cc2)n1 [Compound 6f] | 18 | 2.11 | – | – |
| COc1ccc(NS(=O)(=O)c2ccc(N=C3C=C(Nc4ccc(S(=O)(=O)Nc5ccc(OC)nn5)cc4)C(=O)c4ccccc43)cc2)nn1 [Compound 6j] | 30 | 3.33 | – | – |
| Cc1ccnc(NS(=O)(=O)c2ccc(N=C3C=C(Nc4ccc(S(=O)(=O)Nc5nccc(C)n5)cc4)C(=O)c4ccccc43)cc2)n1 [Compound 3f] | 29 | – | 2.51 | – |
| Cc1cc(C)nc(NC(=O)c2ccc(N=C3C=C(Nc4ccc(C(=O)Nc5cc(C)cc(C)n5)cc4)C(=O)c4ccccc43)cc2)c1 [Compound 3ah] | 70 | – | 8.97 | – |
| Cc1cc(C)nc(NS(=O)(=O)c2ccc(N=C3C=C(Nc4ccc(S(=O)(=O)Nc5nc(C)cc(C)n5)cc4)C(=O)c4ccccc43)cc2)n1 [Compound 6c] | 7 | 1.88 | – | – |
| Cc1cc(C)nc(NS(=O)(=O)c2cc(N=C3C=C(Nc4ccc(C)c(S(=O)(=O)Nc5cc(C)cc(C)n5)c4)C(=O)c4ccccc43)ccc2C)c1 [Compound 6ag] | 16 | 0.06 | – | – |
| Cc1cc(C)nc(NS(=O)(=O)c2ccc(N=C3C=C(Nc4ccc(S(=O)(=O)Nc5nc(C)cc(C)n5)cc4)C(=O)c4ccccc43)cc2)n1 [Compound 3c] | 21 | 0.77 | – | – |
| Cc1cc(NS(=O)(=O)c2ccc(N=C3C=C(Nc4ccc(S(=O)(=O)Nc5cc(C)on5)cc4)C(=O)c4ccccc43)cc2)no1 [Compound 6a] | – | 8 | – | – |
| Cc1cc(C)nc(NS(=O)(=O)c2cccc(N=C3C=C(Nc4cccc(S(=O)(=O)Nc5cc(C)cc(C)n5)c4)C(=O)c4ccccc43)c2)c1 [Compound 3ae] | 16 | – | 0.04 | – |
